Data published in PMC12216609, “Inhibitors of eIF1A-ribosome interaction unveil uORF-dependent regulation of translation initiation and antitumor and antiviral effects” (The EMBO Journal, 2025).
Where “and” joins values, the source holds several entries; their conditions need not be identical. Equal entries are not always repeated. Where two headings read alike, the source gives them in different places.

What was measured:
[1] = target: NSP1 (Severe acute respiratory syndrome coronavirus 2, UniProt P0DTD1)
[2] = tested on: cap-proximal AUG GFP reporter in HEK293T cells; format: cell-based; settings: GFP WB densitometry; 20 µM overnight; dmso 0.965946;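 also: ratio of upstream to downstream AUG initiation products on GFP Western blot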
[3] = target: T1, eIF1A-RPS10 interaction (Homo sapiens, UniProt P46783+P47813); experiment: Split-Renilla luciferase eIF1A-RPS10 interaction screen, dose-response; format: biochemical
T1 construct: made in house; host or cells: E. coli BL21 (PRSFduet); unpurified lysate supernatant
How it was run: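 Split-Renilla luciferase complementation using bacterially expressed (BL21) eIF1A-ΔC-Renilla and RPS10-ΔN-Renilla in clarified lysates (TKE buffer); eIF1A C-terminus fused to N-RL. Compound interference with eIF1A-RPS10 interaction read as loss of reconstituted RL activity; split-RL halves alone served as controls.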

[4] = tested on: IRF7 5'UTR firefly luciferase reporter in HEK293T cells; settings: for Reference vs IRF7 (Final data, Fig. 1E): 1/Result, relative to DMSO; for LONG (summary - All), normalized to DMSO: Long reporter; for LONG (summary - All), normalized to DMSO / SHORT (summary - All), normalized to DMSO: individual replicates, outliers excluded, DMSO = 1; for average ( long vs short ratio): summary - All; for Long 5'UTR reporter luciferase activity, normalized to DMSO (=1), single replicates: left data block (Long), source data of Fig 1C;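 as to all read-outs here: luciferase signal corrected by a co-transfected GFP reporter for transfection efficiency, read after overnight compound exposure, with Long and Short reporters differing in 5'UTR length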
[5] = target: T2, eIF1A (Homo sapiens, UniProt P47813); format: binding; settings: for fluorescence ratio, eIF1A: background-corrected, relative to DMSO or lowest 1Ai concentration, replicate columns; for WT eIF1A IC50: fluorescence binding
T2 construct: His-bdSUMO (cleaved yes); made in house; host or cells: E. coli BL-21

[6] = target: T3, RPS10 (Homo sapiens, UniProt P46783); format: binding; settings: for RPS10 IC50: fluorescence binding
T3 construct: made in house; host or cells: E. coli BL-21

[7] = summary table, read-out: IC50 concentration (µM), IC50 screen
[8] = summary table, fluorescence binding assay, read-out: IC50 concentration (µM), WT eIF1A
[9] = summary table, fluorescence binding assay

T2 sequence (P47813 whole entry): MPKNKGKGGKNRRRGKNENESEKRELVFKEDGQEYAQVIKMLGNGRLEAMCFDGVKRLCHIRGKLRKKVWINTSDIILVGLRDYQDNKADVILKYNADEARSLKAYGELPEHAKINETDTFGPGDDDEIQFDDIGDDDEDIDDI
T1 sequence (P47813 whole entry, one chain of several): as the sequence (P47813 whole entry) above

| Compound | GFP reporter ratio nsp1/gfp, avg [1] | GFP reporter ratio nsp1/gfp, rep 1 [1] | gfp signal, mean of duplicate wells [1] | nsp1 signal, mean of duplicate wells [1] | ratio (nsp1/gfp) [1] | US/DS ratio, average [2] | IC50 [3, 7] | Reference vs IRF7 (Final data, Fig. 1E) ([4]; 20 µM) | fluorescence ratio, eIF1A ([5]; 1Ai conc. 0.25 uM) | fluorescence ratio, eIF1A ([5]; 1Ai conc. 1 uM) | fluorescence ratio, eIF1A ([5]; 1Ai conc. 2 uM) | fluorescence ratio, eIF1A ([5]; 1Ai conc. 4 uM) | fluorescence ratio, eIF1A ([5]; 1Ai conc. 8 uM) | fluorescence ratio, eIF1A ([5]; 1Ai conc. 16 uM) | fluorescence ratio, eIF1A ([5]; 1Ai conc. 32 uM) | fluorescence ratio, eIF1A ([5]; 1Ai conc. 64 uM) | RPS10 fluorescence ratio to control ([6]; 1Ai conc. 0.25 uM) | RPS10 fluorescence ratio to control ([6]; 1Ai conc. 0.5 uM) | RPS10 fluorescence ratio to control ([6]; 1Ai conc. 1 uM) | RPS10 fluorescence ratio to control ([6]; 1Ai conc. 2 uM) | other results |
| --- | --- | --- | --- | --- | --- | --- | --- | --- | --- | --- | --- | --- | --- | --- | --- | --- | --- | --- | --- | --- | --- |
| CN(C)CC1CCn2cc(c3ccccc32)C2=C(C(=O)NC2=O)c2cn(c3ccccc23)CCO1 (centres unmarked) [1Ai-5662] | 0.4084 | 0.4084 | 442 | 180.5 | 0.408 | 3.065 | 25 µM | 0.936 | 0.7967 and 0.9449 | 0.7317 and 0.9217 | 1.065 and 0.7855 | 1.002 and 0.7942 | 0.774 and 0.658 | 0.5642 and 0.6667 | 0.2341 and 0.4609 | 0.1593 and 0.2928 | 0.8917 | 1.048 | 0.937 | 0.8646 | LONG (summary - All), normalized to DMSO ([4]; 10 µM): 1.11 and 0.84 and 0.46 and 0.50; SHORT (summary - All), normalized to DMSO ([4]; Short reporter, 10 µM): 0.67 and 0.80 and 0.62 and 0.63; average ( long vs short ratio) ([4]; 10 µM): 1.068; fluorescence ratio, eIF1A ([5]; 1Ai conc. 0.5 uM, listed as 5662): 0.8569 and 0.971; fluorescence ratio, eIF1A ([5]; 1Ai conc. 256 uM): 0.1171 and 0.07826; IC50 ([5]; eIF1A, from the titration data, read-out: IC50 (eIF1A titration block)): 20.9 µM; IC50 [5, 8]: 20.9 µM; RPS10 fluorescence ratio to control ([6]; 1Ai conc. 4 uM): 0.7525; RPS10 fluorescence ratio to control ([6]; 1Ai conc. 8 uM): 0.6979; RPS10 fluorescence ratio to control ([6]; 1Ai conc. 16 uM): 0.6531; RPS10 fluorescence ratio to control ([6]; 1Ai conc. 32 uM): 0.6137; RPS10 fluorescence ratio to control ([6]; 1Ai conc. 64 uM): 0.4569; RPS10 fluorescence ratio to control ([6]; 1Ai conc. 256 uM): 0.295; RPS10 IC50 [6]: No binding; IC50 concentration (µM), RPS10 [6, 9]: No binding |
| CCOc1cc(C(=O)Nc2ccc(Cl)c(-c3nc4ccccc4[nH]3)c2)cc(OCC)c1OCC [1Ai-5677] | 0.572 | 0.572 | 1615.5 | 924 | 0.572 | 0.4981 | 15 µM | 1.223 | 0.8378 and 0.9597 | 0.9644 and 1.01 | 1.084 and 0.9877 | 1.028 and 1.008 | 0.9744 and 0.9518 | 1.11 and 0.9262 | 1.565 and 1.017 | 1.663 and 1.113 | 1.185 | 1.207 | 1.132 | 1.142 | LONG (summary - All), normalized to DMSO ([4]; 20 µM): 0.42 and 0.28 and 0.29 and 0.61; SHORT (summary - All), normalized to DMSO ([4]; Short reporter, 20 µM): 0.22 and 0.81 and 0.72 and 0.21; Long 5'UTR reporter luciferase activity, normalized to DMSO (=1), single replicates ([4]; compound at 20 µM): 0.4235 and 0.2817 and 0.2949 and 0.6069; average ( long vs short ratio) ([4]; 20 µM): 0.817; fluorescence ratio, eIF1A ([5]; 1Ai conc. 0.5 uM): 0.7937 and 0.9656; fluorescence ratio, eIF1A ([5]; 1Ai conc. 256 uM): 1.623 and 1.122; IC50 [5, 8]: 24.8 µM; RPS10 fluorescence ratio to control ([6]; 1Ai conc. 4 uM): 1.154; RPS10 fluorescence ratio to control ([6]; 1Ai conc. 8 uM): 1.116; RPS10 fluorescence ratio to control ([6]; 1Ai conc. 16 uM): 1.16; RPS10 fluorescence ratio to control ([6]; 1Ai conc. 32 uM): 1.234; RPS10 fluorescence ratio to control ([6]; 1Ai conc. 64 uM): 1.307; RPS10 fluorescence ratio to control ([6]; 1Ai conc. 256 uM): 1.29; RPS10 IC50 [6]: No binding; IC50 concentration (µM), RPS10 [6, 9]: No binding |
| O=c1cc(CN2CCOCC2)occ1OCCCCCSc1ccnc2cc(C(F)(F)F)ccc12 [1Ai-5730] | 0.5107 | 0.524 | 1636.5 | 857.5 | 0.524 | 0.4467 | 24 µM | 1.720 | 1.04 and 0.9394 | 1.0621 and 0.9646 | 1.055 and 0.9796 | 1.077 and 1.03 | 0.8919 and 0.9326 | 0.9465 and 0.9064 | 0.9379 and 0.8516 | 0.7437 and 0.7726 | 1 | 0.9752 | 0.9984 | 0.9868 | IC50 ([3]; Appendix Table S1, read-out: IC50 from the split RL screen): 30 µM; LONG (summary - All), normalized to DMSO ([4]; 10 µM): 0.65 and 0.52 and 0.40 and 0.70; SHORT (summary - All), normalized to DMSO ([4]; Short reporter, 10 µM): 0.89 and 1.17 and 0.87; Long 5'UTR reporter luciferase activity, normalized to DMSO (=1), single replicates ([4]; compound at 10 µM): 0.6956; Short: Normalized to average DMSO ([4]; data section, Short reporter, GFP-corrected, 10 µM, per experiment): 0.892 and 1.021 and 1.1679; average ( long vs short ratio) ([4]; 10 µM): 0.581; fluorescence ratio, eIF1A ([5]; 1Ai conc. 0.5 uM): 1.062 and 0.9801; WT eIF1A IC50 [5]: No binding; IC50 concentration (µM), WT eIF1A [5, 9]: No binding; RPS10 fluorescence ratio to control ([6]; 1Ai conc. 4 uM): 1.11; RPS10 fluorescence ratio to control ([6]; 1Ai conc. 8 uM): 1.2215; RPS10 fluorescence ratio to control ([6]; 1Ai conc. 16 uM): 1.217; RPS10 fluorescence ratio to control ([6]; 1Ai conc. 32 uM): 1.212; RPS10 fluorescence ratio to control ([6]; 1Ai conc. 256 uM): 1.367; IC50 ([6]; read-out: IC50 (line under RPS10 binding data)): 22.1 µM; IC50 ([6]; read-out: RPS10 IC50): 22.1 µM; IC50 ([6]; summary table, fluorescence binding assay, read-out: IC50 concentration (µM), RPS10): 22.1 µM |
| Oc1cc(Cl)ccc1Oc1ccc(Cl)cc1Cl [1Ai-6248] | 0.4361 | 0.4445 | 2505 and 4211.5 | 1071.5 and 1872 | 0.428 and 0.444 | 1.042 | 28 µM | 2.307 | 0.9384 and 1.064 | 1.006 and 1.027 | 0.9417 and 1.0128 | 0.9205 and 0.9547 | 0.8204 and 0.8224 | 0.7985 and 0.7888 | 0.7283 and 0.6891 | 0.6123 and 0.5776 | 1.015 | 0.9639 | 0.9786 | 0.9545 | GFP reporter ratio nsp1/gfp, rep 2 [1]: 0.4277; LONG (summary - All), normalized to DMSO ([4]; 5 µM): 0.82 and 0.51 and 0.33 and 0.43; SHORT (summary - All), normalized to DMSO ([4]; Short reporter, 5 µM): 0.71 and 0.90 and 0.20; average ( long vs short ratio) ([4]; 5 µM): 0.861; fluorescence ratio, eIF1A ([5]; 1Ai conc. 0.5 uM): 0.9722 and 1.055; fluorescence ratio, eIF1A ([5]; 1Ai conc. 256 uM): 0.937 and 1.038; WT eIF1A IC50 [5]: No binding; IC50 concentration (µM), WT eIF1A [5, 9]: No binding; RPS10 fluorescence ratio to control ([6]; 1Ai conc. 4 uM): 0.9327; RPS10 fluorescence ratio to control ([6]; 1Ai conc. 8 uM): 0.7864; RPS10 fluorescence ratio to control ([6]; 1Ai conc. 16 uM): 0.7439; RPS10 fluorescence ratio to control ([6]; 1Ai conc. 32 uM): 0.7362; RPS10 fluorescence ratio to control ([6]; 1Ai conc. 64 uM): 0.7781; RPS10 fluorescence ratio to control ([6]; 1Ai conc. 256 uM): 1.057; RPS10 IC50 [6]: No binding; IC50 concentration (µM), RPS10 [6, 9]: No binding |
